Test results from patent EP4273147A1, “SUBSTITUTED SPIROLACTAMS, SALTS THEREOF AND THEIR USE AS HERBICIDALLY ACTIVE SUBSTANCES” (Bayer Aktiengesellschaft, priority 2022, dated 2023).

Columns and labels:
[1] = test system: ABUTH; test: Herbicidal pre-emergence action (Table A1); format: in vivo, Abutilon theophrasti; conditions: application rate 1280 g/ha; visual grading after ca. 3 weeks vs untreated controls (100% = plants have died off, 0% = as control plants)
Source text: (§1) Seeds of mono- and dicotyledonous weed plants were sown in plastic pots (double sowings with one species of mono- and one species of dicotyledonous weed plants per pot), in sandy loam, and covered with soil.

[2] = test system: ECHCG; test: Herbicidal pre-emergence action (Table A2); format: in vivo, Echinochloa crus-galli; conditions: visual grading after ca. 3 weeks
Outline: (§2)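 Weed seeds are sown into sandy loam in pots and covered with soil, with two species per pot, one monocot and one dicot.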

[3] = test system: LOLRI; test: Herbicidal pre-emergence action (Table A3); format: in vivo, Lolium rigidum; conditions: visual grading after ca. 3 weeks
Outline: as §2

[4] = test system: MATIN; test: Herbicidal pre-emergence action (Table A4); format: in vivo, Matricaria inodora; conditions: visual grading after ca. 3 weeks
Outline: as §2

[5] = test system: SETVI; test: Herbicidal pre-emergence action (Table A5); format: in vivo, Setaria viridis; conditions: visual grading after ca. 3 weeks
Outline: as §2

[6] = test system: STEME; test: Herbicidal pre-emergence action (Table A6); format: in vivo, Stellaria media; conditions: application rate 320 g/ha; visual grading after ca. 3 weeks
Outline: as §2

[7] = test system: POAAN; test: Herbicidal pre-emergence action (Table A7); format: in vivo, Poa annua; conditions: visual grading after ca. 3 weeks
Outline: as §2

[8] = test system: ALOMY; test: Herbicidal pre-emergence action (Table A9); format: in vivo, Alopecurus myosuroides; conditions: application rate 1280 g/ha; visual grading after ca. 3 weeks
Outline: as §2

[9] = test system: VERPE; test: Herbicidal pre-emergence action (Table A11); format: in vivo, Veronica persica; conditions: application rate 1280 g/ha; visual grading after ca. 3 weeks
Outline: as §2

[10] = test system: ABUTH; test: Herbicidal post-emergence action (Table B1); format: in vivo, Abutilon theophrasti; conditions: application rate 1280 g/ha; treated at one-leaf stage; rated visually after about 3 weeks vs untreated controls (100% = plants have died, 0% = like control plants)
Description: (§3) Seeds of mono- and dicotyledonous weed plants were placed in plastic pots in sandy loam soil (doubly sown with in each case one species of mono- or dicotyledonous weed plants per pot), covered with soil and cultivated in a greenhouse under controlled growth conditions. 2 to 3 weeks after sowing, the test plants were treated at the one-leaf stage. […] After the test plants had been kept in the greenhouse under optimum growth conditions for about 3 weeks, the activity of the preparations was rated visually in comparison to untreated controls. For example, 100% activity = the plants have died, 0% activity = like control plants.

[11] = test system: ECHCG; test: Herbicidal post-emergence action (Table B3); format: in vivo, Echinochloa crus-galli; conditions: rated visually after about 3 weeks
Outline: (§4)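 Greenhouse pot test in sandy loam; weeds sown, treated post-emergence at one-leaf stage 2–3 weeks after sowing. Activity rated visually about 3 weeks later versus untreated controls, 100% = plants dead, 0% = like controls.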

[12] = test system: MATIN; test: Herbicidal post-emergence action (Table B6); format: in vivo, Matricaria inodora; conditions: application rate 1280 g/ha; rated visually after about 3 weeks
Description: as §3

[13] = test system: POAAN; test: Herbicidal post-emergence action (Table B7); format: in vivo, Poa annua
Outline: as §4

[14] = test system: VERPE; test: Herbicidal post-emergence action (Table B10); format: in vivo, Veronica persica; conditions: application rate 1280 g/ha
Description: as §3

[15] = test system: KCHSC; test: Herbicidal pre-emergence action (Table A10); format: in vivo, Kochia scoparia; conditions: application rate 1280 g/ha; visual grading after ca. 3 weeks
Outline: as §2

[16] = test system: AMARE; test: Herbicidal post-emergence action (Table B11); format: in vivo, Amaranthus retroflexus
Description: as §3

[17] = test system: AMARE; test: Herbicidal pre-emergence action (Table A8); format: in vivo, Amaranthus retroflexus; conditions: application rate 1280 g/ha; visual grading after ca. 3 weeks vs untreated controls (100% = plants have died off, 0% = as control plants)
Source text: as §1

[18] = test system: DIGSA; test: Herbicidal pre-emergence action (Table A12); format: in vivo, Digitaria sanguinalis; conditions: visual grading after ca. 3 weeks
Outline: as §2

[19] = test system: ALOMY; test: Herbicidal pre-emergence action, section C (Table C2); format: in vivo, Alopecurus myosuroides; conditions: application rate 320 g/ha; visual grading after ca. 3 weeks
[20] = test system: ECHCG; test: Herbicidal pre-emergence action, section C (Table C6); format: in vivo, Echinochloa crus-galli; conditions: application rate 80 g/ha; visual grading after ca. 3 weeks
Source text: Seeds of mono- and dicotyledonous weed plants and crop plants were sown, in plastic or organic planting pots, in sandy loam and covered with soil. The compounds according to the invention, formulated in the form of wettable powders (WP) or as emulsifiable concentrates (EC), were applied to the surface of the covering soil as aqueous suspension or emulsion, with the addition of 0.5% of an additive, at an application rate of 600 1 of water/ha (converted). Following treatment, the pots were placed in a greenhouse and kept under optimum growth conditions for the test plants.

[21] = test system: LOLRI; test: Herbicidal pre-emergence action, section C (Table C7); format: in vivo, Lolium rigidum; conditions: application rate 320 g/ha; visual grading after ca. 3 weeks
[22] = test system: SETVI; test: Herbicidal pre-emergence action, section C (Table C10); format: in vivo, Setaria viridis; conditions: application rate 320 g/ha; visual grading after ca. 3 weeks
[23] = test system: VIOTR; test: Herbicidal pre-emergence action, section C (Table C12); format: in vivo, Viola tricolor; conditions: application rate 320 g/ha; visual grading after ca. 3 weeks
[24] = test system: ZEAMX; test: Pre-emergence effects on crop plants (Table D1); format: in vivo, Zea mays; conditions: crop plant; application rate 80 g/ha; visual grading after ca. 3 weeks
[25] = test system: GLXMA; test: Pre-emergence effects on crop plants (Table D4); format: in vivo, Glycine max; conditions: crop plant; application rate 80 g/ha; visual grading after ca. 3 weeks
[26] = test system: BRSNW; test: Pre-emergence effects on crop plants (Table D5); format: in vivo, Brassica napus; conditions: crop plant; application rate 320 g/ha; visual grading after ca. 3 weeks
[27] = test system: ECHCG; test: Herbicidal post-emergence action, section E (Table E5); format: in vivo, Echinochloa crus-galli; conditions: application rate 320 g/ha; assessed visually after ca. 3 weeks
Source text: (§5) 2 to 3 weeks after sowing, the test plants were sprayed in the single-leaf stage.

[28] = test system: ZEAMX; test: Post-emergence effects on crop plants (Table F1); format: in vivo, Zea mays; conditions: application rate 80 g/ha, crop plant ZEAMX
Source text: as §5

[29] = test system: TRZAS; test: Post-emergence effects on crop plants (Table F2); format: in vivo, Triticum aestivum; conditions: application rate 320 g/ha, crop plant TRZAS
Source text: as §5

[30] = test system: ORYZA; test: Post-emergence effects on crop plants (Table F3); format: in vivo, Oryza sativa; conditions: application rate 320 g/ha, crop plant ORYZA
Source text: as §5

[31] = test system: BRSNW; test: Post-emergence effects on crop plants (Table F5); format: in vivo, Brassica napus; conditions: application rate 320 g/ha, crop plant BRSNW
Source text: as §5

[32] = test system: ORYZA; test: Pre-emergence effects on crop plants (Table D3); conditions: crop plant; application rate 80 g/ha; visual grading after ca. 3 weeks

SMILES	pre-emergence activity against ABUTH [1] [%]	pre-emergence activity against ECHCG ([2]; application rate 320 g/ha) [%]	pre-emergence activity against LOLRI ([3]; application rate 320 g/ha) [%]	pre-emergence activity against SETVI ([5]; application rate 320 g/ha) [%]	pre-emergence activity against STEME [6] [%]	pre-emergence activity against POAAN ([7]; application rate 320 g/ha) [%]	post-emergence activity against ABUTH [10] [%]	post-emergence activity against POAAN ([13]; application rate 1280 g/ha) [%]	post-emergence activity against VERPE [14] [%]	pre-emergence activity against ECHCG ([2]; application rate 1280 g/ha) [%]	pre-emergence activity against MATIN ([4]; application rate 1280 g/ha) [%]	pre-emergence activity against SETVI ([5]; application rate 1280 g/ha) [%]	pre-emergence activity against KCHSC [15] [%]	post-emergence activity against ECHCG ([11]; application rate 1280 g/ha) [%]	pre-emergence activity against LOLRI ([3]; application rate 1280 g/ha) [%]	other results
O=C1N(Cc2ccccc2F)CCCC12CCCN(Cc1c(F)cccc1F)C2=O (racemic) [I-031]	90	100	100	100	90	100	90	90	90							pre-emergence activity against MATIN ([4]; application rate 320 g/ha): 90%; pre-emergence activity against ALOMY [8]: 90%; pre-emergence activity against VERPE [9]: 90%; post-emergence activity against ECHCG ([11]; application rate 320 g/ha): 90%; post-emergence activity against MATIN [12]: 90%
O=C1N(Cc2cccs2)CCCC12CCCN(Cc1cccc(F)c1F)C2=O (racemic) [I-040]	90		100		90	100			90	100	90	100	90	90		post-emergence activity against POAAN ([13]; application rate 320 g/ha): 100%; post-emergence activity against AMARE ([16]; application rate 1280 g/ha): 100%
O=C1N(Cc2ccsc2)CCCC12CCCN(Cc1ccsc1)C2=O (racemic) [I-046]					100					100		90			90	pre-emergence activity against POAAN ([7]; application rate 1280 g/ha): 100%; pre-emergence activity against AMARE [17]: 90%; pre-emergence activity against DIGSA ([18]; application rate 1280 g/ha): 90%
COc1ccccc1CN1CCCC2(CCCN(Cc3cccc(F)c3F)C2=O)C1=O (racemic) [I-052]		100	100	100										90		post-emergence activity against AMARE ([16]; application rate 320 g/ha): 90%; pre-emergence activity against ALOMY [19]: 90%; pre-emergence activity against ECHCG [20]: 100%; pre-emergence activity against LOLRI [21]: 90%; pre-emergence activity against SETVI [22]: 100%; pre-emergence activity against VIOTR [23]: 80%; pre-emergence activity against ZEAMX [24]: 0%; pre-emergence activity against GLXMA [25]: 20%; pre-emergence activity against BRSNW [26]: 0%; post-emergence activity against ECHCG [27]: 80%; post-emergence activity against ZEAMX [28]: 0%; post-emergence activity against TRZAS [29]: 0%; post-emergence activity against ORYZA [30]: 20%; post-emergence activity against BRSNW [31]: 0%; pre-emergence activity against ORYZA [32]: 20%
Cc1ccccc1CN1CCC2(CCCN(Cc3c(F)cccc3F)C2=O)C1=O (racemic) [I-058]					90	100	90	90		100	90	90	90	90	90	pre-emergence activity against DIGSA ([18]; application rate 320 g/ha): 90%
